Reference: the NIST ThermoML archive (doi:10.1021/je7007022)
Numbers after ± are expanded uncertainties.

Test: excess molar enthalpy (molar enthalpy of mixing); xn = mol fraction of the nth substance listed
Details: 303.15 K, 101 kPa, Liquid, Flow calorimetry

O=CO [formic acid] + C1COCCO1
excess molar enthalpy (x2 = 0.056): -0.0504 ± 0.00215 kcal/mol
excess molar enthalpy (x2 = 0.114): -0.096 ± 0.00406 kcal/mol
excess molar enthalpy (x2 = 0.225): -0.194 ± 0.00789 kcal/mol
excess molar enthalpy (x2 = 0.301): -0.275 ± 0.0112 kcal/mol
excess molar enthalpy (x2 = 0.383): -0.35 ± 0.0143 kcal/mol
excess molar enthalpy (x2 = 0.472): -0.401 ± 0.0163 kcal/mol
excess molar enthalpy (x2 = 0.58): -0.418 ± 0.017 kcal/mol
excess molar enthalpy (x2 = 0.705): -0.354 ± 0.0143 kcal/mol
excess molar enthalpy (x2 = 0.762): -0.274 ± 0.0112 kcal/mol
excess molar enthalpy (x2 = 0.836): -0.182 ± 0.00741 kcal/mol
excess molar enthalpy (x2 = 0.917): -0.0574 ± 0.00239 kcal/mol
